Data set [1] in a line: degree of order S in liquid crystal mixture. Type of data set: physicochemical. The protocol: (§1) The degree of order S measured at room temperature, the solubility L, likewise determined at room temperature, and the Merck liquid crystal mixtures used are summarized in Table 1 for the Examples 1, 2 and 4-12.
The degree of order S was determined in commercial measuring cells with a homogeneous edge orientation, using the known equation [formula] (polyimide). The dichroic ratio CR was determined by measuring the extinctions E.parallel. (measurement with light polarized parallel to the preferred direction of the nematic phase) and E.perp. (measurement with light polarized at right angles to the preferred direction of the nematic phase) and using the relationship [formula] the dye concentration being chosen so that E.parallel. was from 1 to 2. The measurements were carried out on a Beckmann Acta CIII spectrophotometer.

The nature of data set [2]: solubility L in liquid crystal mixture. Conditions: 1 week stirring. The format is physicochemical. How it is done:
as §1
The solubility was determined as follows:
50 mg of the particular dye were stirred in 1 ml of liquid-crystalline mixture for 1 week at room temperature, the saturated solution was separated from the residue by centrifuging, and the solubility was determined by comparison of the extinctions.

Where [3] appears, read: liquid crystal mixture ZLI 1957/5.
The mark [4] stands for this setting: liquid crystal mixture ZLI 2452.
The mark [5] stands for this setting: liquid crystal mixture ZLI 1840.

Structures are written as SMILES. Bounds are passed on as bounds.

`CCCCC(CC)c1nnc(-c2ccc(N=Nc3cc(C)c(N=Nc4ccc(N(C)CCCC)cc4)cc3C)cc2)o1` (stereo not drawn) [Example 6]: in data set [1] (setting [3]), the “Degree of order S (at room temp.)” value turned out to be 0.68. Further, the “Solubility L (at room temp.)” value in data set [2] (setting [3]) is given as greater than 5%.

As for `CCCCCCCC(C)Sc1nnc(-c2ccc(N=Nc3ccc(N=Nc4ccc(OCc5ccc(C6CCC(CCCC)CC6)cc5)cc4C)c4ccccc34)cc2)s1` (stereo not drawn) [Example 19], the figures for the “Degree of order S (at room temp.)” value in data set [1] (setting [3]) and in data set [1] (setting [4]) were 0.77 and 0.84, respectively. For the same compound, the “Solubility L (at room temp.)” value in data set [2] (setting [3]) and in data set [2] (setting [4]) was greater than 5% in each case.

Take `CCOC(=O)c1sc(-c2ccc(N=Nc3ccc(N=Nc4ccc(N(C)C)cc4)c4ccccc34)cc2)nc1C` [Example 7]: the “Degree of order S (at room temp.)” value in data set [1] (setting [5]) is 0.74. Also, the “Solubility L (at room temp.)” value in data set [2] (setting [5]) was found to be 1.4%.

As for `CCCCc1nnc(-c2ccc(N=Nc3cc(C)c(N=Nc4ccc(OCc5ccc(C6CCC(CC)CC6)cc5)cc4C)cc3C)cc2)o1` (stereo not drawn) [Example 1], the “Degree of order S (at room temp.)” value in data set [1] (setting [5]) and in data set [1] (setting [3]) was 0.76 throughout. Also, the figures for the “Solubility L (at room temp.)” value in data set [2] (setting [5]) and in data set [2] (setting [3]) were 1.6% and 1.3%, respectively.

As for `CCCCC(CC)CSc1nnc(-c2ccc(N=Nc3ccc(N=Nc4ccc(N(C)CCCC)cc4)c4ccccc34)cc2)s1` (stereo not drawn) [Example 15], the “Degree of order S (at room temp.)” value in data set [1] (setting [4]) is 0.8. Besides, in data set [2] (setting [4]), the “Solubility L (at room temp.)” value is greater than 5%.

On to `CCCCc1nnc(-c2ccc(N=Nc3cc(C)c(N=Nc4ccc(N(C)CCCC)cc4)cc3C)cc2)o1` [Example 5], for which the “Degree of order S (at room temp.)” value in data set [1] (setting [5]) and in data set [1] (setting [3]) was 0.73 each time. Moreover, the “Solubility L (at room temp.)” value is 1.4% in data set [2] (setting [5]) and 1.3% in data set [2] (setting [3]).

Take `CCCCSc1nnc(-c2ccc(N=Nc3ccc(N=Nc4ccc(N(C)CCCC)cc4)c4ccccc34)cc2)s1` [Example 9]: the “Degree of order S (at room temp.)” value in data set [1] (setting [5]) is 0.79; in data set [1] (setting [3]), 0.77. Also, the “Solubility L (at room temp.)” value is 0.6% in data set [2] (setting [5]) and 0.3% in data set [2] (setting [3]).

For `CCCCSc1nnc(-c2ccc(N=Nc3cc(C)c(N=Nc4ccc(N(C)CCCC)cc4)cc3C)cc2)s1` [Example 2], the “Degree of order S (at room temp.)” value in data set [1] (setting [3]) came to 0.74. In addition, in data set [2] (setting [3]), the “Solubility L (at room temp.)” value is 1.1%.

Regarding `CCCCCCCC(C)Sc1nnc(-c2ccc(N=Nc3ccc(N=Nc4ccc(N(C)CCCC)cc4)c4ccccc34)cc2)s1` (stereo not drawn) [Example 16], the “Degree of order S (at room temp.)” value in data set [1] (setting [4]) came out at 0.81. Moreover, in data set [2] (setting [4]), the “Solubility L (at room temp.)” value is greater than 5%.

As to `CCCCc1nnc(-c2ccc(N=Nc3ccc(N=Nc4ccc(N(C)CCCC)cc4)c4ccccc34)cc2)o1` [Example 10], the “Degree of order S (at room temp.)” value in data set [1] (setting [3]) was determined as 0.74. For the same compound, the “Solubility L (at room temp.)” value in data set [2] (setting [3]) is 1.2%.

As for `CCCCCCCCSc1nnc(-c2ccc(N=Nc3ccc(N=Nc4ccc(N(C)CCCC)cc4)c4ccccc34)cc2)s1` [Example 14], the “Degree of order S (at room temp.)” value in data set [1] (setting [3]) is reported as 0.77. The “Solubility L (at room temp.)” value in data set [2] (setting [3]) turned out to be 0.7%.

On to `Cc1cc(N=Nc2ccc(N(C)C)cc2)c(C)cc1N=Nc1ccc(-c2nnc(SCc3ccccc3)s2)cc1` [Example 4], for which the “Degree of order S (at room temp.)” value in data set [1] (setting [5]) turned out to be 0.78. For the same compound, the “Solubility L (at room temp.)” value in data set [2] (setting [5]) is on record as less than 0.2%.

Turning to `CCCCSc1nnc(-c2ccc(N=Nc3ccc(N=Nc4ccc(N(C)C)cc4)c4ccccc34)cc2)s1` [Example 8], the results for the “Degree of order S (at room temp.)” value in data set [1] (setting [5]) and in data set [1] (setting [3]) were 0.76 and 0.78, respectively. For the same compound, the figures for the “Solubility L (at room temp.)” value in data set [2] (setting [5]) and in data set [2] (setting [3]) were 1.3% and 0.5%, respectively.

With `CCCCC(CC)c1nnc(-c2ccc(N=Nc3ccc(N=Nc4ccc(NCC)c5ccccc45)c4ccccc34)cc2)o1` (stereo not drawn) [Example 12], the “Degree of order S (at room temp.)” value in data set [1] (setting [3]) stood at 0.71. The “Solubility L (at room temp.)” value in data set [2] (setting [3]) stood at 0.8%.

For the compound `CCCCC(CC)c1nnc(-c2ccc(N=Nc3ccc(N=Nc4ccc(N(C)CCCC)cc4)c4ccccc34)cc2)o1` (stereo not drawn) [Example 11], the “Degree of order S (at room temp.)” value in data set [1] (setting [3]) came out at 0.74. Also, in data set [2] (setting [3]), the “Solubility L (at room temp.)” value was greater than 5%.

For the compound `CCCCC1CCC(c2ccc(COc3ccc(N=Nc4ccc(N=Nc5ccc(-c6nnc(SCC(CC)CCCC)s6)cc5)c5ccccc45)c(C)c3)cc2)CC1` (stereo not drawn) [Example 18], the “Degree of order S (at room temp.)” value in data set [1] (setting [4]) is given as 0.82. Moreover, in data set [2] (setting [4]), the “Solubility L (at room temp.)” value is reported as 3.1%.
